Experimental data taken from ChEMBL document CHEMBL3734717, “New INH-pyrazole analogs: Design, synthesis and evaluation of antitubercular and antibacterial activity” (Bioorg Med Chem Lett, 2015).
≈ marks a conversion by molar mass, not a printed value. Calls of active or inactive are those of the source. The rule behind the calls is not given here.

Assays:
Pseudomonas aeruginosa [1] = assay: Antibacterial activity against Pseudomonas aeruginosa assessed as zone of inhibition at 75 ug/ml incubated for 18-24 hrs at 37 degC by disc diffusion method; format: functional; details: for zone of inhibition at 75 µg/mL: read-out: IZ
Escherichia coli [2] = assay: Antibacterial activity against Escherichia coli assessed as zone of inhibition at 75 ug/ml incubated for 18-24 hrs at 37 degC by disc diffusion method; format: functional; details: for zone of inhibition at 75 µg/mL: read-out: IZ
Pseudomonas aeruginosa [3] = assay: Antibacterial activity against Pseudomonas aeruginosa assessed as zone of inhibition at 50 ug/ml incubated for 18-24 hrs at 37 degC by disc diffusion method; format: functional; details: for zone of inhibition at 50 µg/mL: read-out: IZ
Staphylococcus aureus [4] = assay: Antibacterial activity against Staphylococcus aureus assessed as zone of inhibition at 75 ug/ml incubated for 18-24 hrs at 37 degC by disc diffusion method; format: functional; details: read-out: IZ
[5] = test system: Mycobacterium tuberculosis; assay: Antitubercular activity against Mycobacterium tuberculosis H37Rv assessed as inhibition of cell growth after 5 days by microplate alamar blue assay; format: functional; details: 120 h
Staphylococcus aureus [6] = assay: Antibacterial activity against Staphylococcus aureus assessed as zone of inhibition at 50 ug/ml incubated for 18-24 hrs at 37 degC by disc diffusion method; format: functional; details: read-out: IZ
Escherichia coli [7] = assay: Antibacterial activity against Escherichia coli assessed as zone of inhibition at 50 ug/ml incubated for 18-24 hrs at 37 degC by disc diffusion method; format: functional; details: for zone of inhibition at 50 µg/mL: read-out: IZ
[8] = Selectivity index, ratio of IC50 for African green monkey Vero cells to MIC for Mycobacterium tuberculosis H37Rv; format: toxicity, cell-based; details: read-out: Selectivity Index
[9] = Cytotoxicity against African green monkey Vero cells assessed as growth inhibition at 62.5 ug/ml after 3 days by MTT assay; format: cell-based; details: chlorocebus sabaeus, read-out: GI
Vero = assay: Cytotoxicity against African green monkey Vero cells assessed as growth inhibition after 3 days by MTT assay; format: cell-based; details: Chlorocebus sabaeus, 72 h

Row | Compound | zone of inhibition at 75 µg/mL (Pseudomonas aeruginosa [1]) | zone of inhibition at 75 µg/mL (Escherichia coli [2]) | zone of inhibition at 50 µg/mL (Pseudomonas aeruginosa [3]) | zone of inhibition at 75 µg/mL (Staphylococcus aureus [4]) | MIC [5] | zone of inhibition at 50 µg/mL (Staphylococcus aureus [6]) | zone of inhibition at 50 µg/mL (Escherichia coli [7]) | selectivity ratio [8] | inhibition at 72 h, 62.5 ug/ml [9] | IC50 (Vero) | inhibition zone (IZ) (Pseudomonas aeruginosa [1]) | inhibition zone (IZ) (Escherichia coli [2]) | inhibition zone (IZ) (Pseudomonas aeruginosa [3]) | inhibition zone (IZ) (Escherichia coli [7])
1 | O=C(c1ccncc1)N(/N=C/c1c[nH]nc1-c1cccc(Cl)c1)C(=O)c1ccc([N+](=O)[O-])cc1 | 14 mm | 15 mm | 11 mm | 17 mm | 26.3 µM (≈ 12.5 µg/mL) | 14 mm | 13 mm | – | – | – | – | – | – | –
2 | COc1ccc(C(=O)N(/N=C/c2c[nH]nc2-c2ccc(Cl)cc2)C(=O)c2ccncc2)cc1OC | 11 mm | 9 mm | 9 mm | 10 mm | 102 µM (≈ 50 µg/mL) | 8 mm | 6 mm | – | – | – | – | – | – | –
3 | O=C(c1ccncc1)N(/N=C/c1c[nH]nc1-c1ccc(Cl)cc1)C(=O)c1ccc(CCl)cc1 | 20 mm | 19 mm | 18 mm | 16 mm | 13.1 µM (≈ 6.27 µg/mL) | 13 mm | 15 mm | > 160 | 12% | > 1000 mg/L | – | – | – | –
4 | O=C(O)c1cn(C2CC2)c2cc(N3CCNCC3)c(F)cc2c1=O [CIPROFLOXACIN] | 21 mm | 32 mm | 18 mm | 26 mm | – | 21 mm | 27 mm | – | – | – | – | – | – | –
5 | O=C(c1ccncc1)N(/N=C/c1c[nH]nc1-c1cccc(Cl)c1)C(=O)c1ccc(CCl)cc1 | 20 mm | 16 mm | 18 mm | 17 mm | 52.3 µM (≈ 25 µg/mL) | 14 mm | 14 mm | – | – | – | – | – | – | –
6 | O=C(c1ccncc1)N(/N=C/c1c[nH]nc1-c1ccc(Cl)cc1)C(=O)c1ccc([N+](=O)[O-])cc1 | 17 mm | 20 mm | 15 mm | 19 mm | 26.3 µM (≈ 12.5 µg/mL) | 17 mm | 18 mm | – | – | – | – | – | – | –
7 | O=C(c1ccncc1)N(/N=C/c1c[nH]nc1-c1ccc(Cl)cc1)C(=O)c1ccc(Cl)cc1 | 21 mm | 24 mm | 18 mm | 24 mm | 53.8 µM (≈ 25 µg/mL) | 21 mm | 19 mm | – | – | – | – | – | – | –
8 | O=C(c1ccncc1)N(/N=C/c1c[nH]nc1-c1cccc(Cl)c1)C(=O)c1ccc(Cl)cc1 | 21 mm | 25 mm | 19 mm | 23 mm | 3.4 µM (≈ 1.58 µg/mL) | 18 mm | 21 mm | > 625 | 10.5% | > 1000 mg/L | – | – | – | –
9 | NNC(=O)c1ccncc1 [ISONIAZID] | – | – | – | – | 0.7 µM (≈ 0.096 µg/mL) | – | – | – | – | – | – | – | – | –
10 | O=C(c1ccncc1)N(/N=C/c1c[nH]nc1-c1cccc(Cl)c1)C(=O)c1ccccc1Cl | 16 mm | 18 mm | 12 mm | 15 mm | 1.7 µM (≈ 0.789 µg/mL) | 13 mm | 14 mm | 642 | 14.9% | 513 mg/L (≈ 1110 µM) | – | – | – | –
11 | O=C(c1ccncc1)N(/N=C/c1c[nH]nc1-c1ccc(Cl)cc1)C(=O)c1ccccc1Cl | 19 mm | 19 mm | 15 mm | 18 mm | 53.8 µM (≈ 25 µg/mL) | 14 mm | 16 mm | – | – | – | – | – | – | –
12 | COc1ccc(C(=O)N(/N=C/c2c[nH]nc2-c2ccc(Cl)cc2)C(=O)c2ccncc2)cc1 | 13 mm | 9 mm | 10 mm | 12 mm | 109 µM (≈ 50 µg/mL) | 10 mm | 7 mm | – | – | – | – | – | – | –
13 | COc1ccc(C(=O)N(/N=C/c2c[nH]nc2-c2cccc(Cl)c2)C(=O)c2ccncc2)cc1OC | – | – | – | 10 mm | 102 µM (≈ 50 µg/mL) | 8 mm | – | – | – | – | inactive | inactive | inactive | inactive
14 | O=C(N/N=C/c1c[nH]nc1-c1cccc(Cl)c1)c1ccncc1 | 19 mm | 24 mm | 15 mm | 23 mm | 4.9 µM (≈ 1.6 µg/mL) | 18 mm | 20 mm | > 625 | 26.3% | > 1000 mg/L | – | – | – | –
15 | Cc1ccc(C(=O)N(/N=C/c2c[nH]nc2-c2ccc(Cl)cc2)C(=O)c2ccncc2)cc1 | 15 mm | 14 mm | 11 mm | 20 mm | 113 µM (≈ 50 µg/mL) | 17 mm | 12 mm | – | – | – | – | – | – | –
16 | O=C(c1ccccc1)N(/N=C/c1c[nH]nc1-c1ccc(Cl)cc1)C(=O)c1ccncc1 | 12 mm | – | 10 mm | 11 mm | 116 µM (≈ 50 µg/mL) | 9 mm | – | – | – | – | – | inactive | – | inactive
17 | Cc1ccc(C(=O)N(/N=C/c2c[nH]nc2-c2cccc(Cl)c2)C(=O)c2ccncc2)cc1 | 10 mm | 11 mm | 8 mm | 12 mm | 113 µM (≈ 50 µg/mL) | 10 mm | 8 mm | – | – | – | – | – | – | –
18 | O=C(c1ccncc1)N(/N=C/c1c[nH]nc1-c1ccc(Cl)cc1)C(=O)c1ccc(F)cc1 | 17 mm | 19 mm | 14 mm | 17 mm | 112 µM (≈ 50 µg/mL) | 14 mm | 17 mm | – | – | – | – | – | – | –
19 | O=C(c1ccccc1)N(/N=C/c1c[nH]nc1-c1cccc(Cl)c1)C(=O)c1ccncc1 | – | – | – | 13 mm | 116 µM (≈ 50 µg/mL) | 11 mm | – | – | – | – | inactive | inactive | inactive | inactive
20 | CC[C@@H](CO)NCCN[C@@H](CC)CO [ETHAMBUTOL] | – | – | – | – | 15.3 µM (≈ 3.13 µg/mL) | – | – | – | – | – | – | – | – | –
21 | NC(=O)c1cnccn1 [PYRAZINAMIDE] | – | – | – | – | 406 µM (≈ 50 µg/mL) | – | – | – | – | – | – | – | – | –
22 | COc1ccc(C(=O)N(/N=C/c2c[nH]nc2-c2cccc(Cl)c2)C(=O)c2ccncc2)cc1 | 14 mm | 11 mm | 11 mm | 10 mm | 109 µM (≈ 50 µg/mL) | 7 mm | 9 mm | – | – | – | – | – | – | –
23 | O=C(N/N=C/c1c[nH]nc1-c1ccc(Cl)cc1)c1ccncc1 | 18 mm | 16 mm | 14 mm | 19 mm | 38.4 µM (≈ 12.5 µg/mL) | 16 mm | 14 mm | – | – | – | – | – | – | –
